Source: ChEMBL document CHEMBL1821686, “Structure-based optimization of potent 4- and 6-azaindole-3-carboxamides as renin inhibitors” (Bioorg Med Chem Lett, 2011)

How the values were obtained:
Renin [1] = molecular target: T1, Renin (Homo sapiens, UniProt P00797)
T1 sequence (P00797 whole entry): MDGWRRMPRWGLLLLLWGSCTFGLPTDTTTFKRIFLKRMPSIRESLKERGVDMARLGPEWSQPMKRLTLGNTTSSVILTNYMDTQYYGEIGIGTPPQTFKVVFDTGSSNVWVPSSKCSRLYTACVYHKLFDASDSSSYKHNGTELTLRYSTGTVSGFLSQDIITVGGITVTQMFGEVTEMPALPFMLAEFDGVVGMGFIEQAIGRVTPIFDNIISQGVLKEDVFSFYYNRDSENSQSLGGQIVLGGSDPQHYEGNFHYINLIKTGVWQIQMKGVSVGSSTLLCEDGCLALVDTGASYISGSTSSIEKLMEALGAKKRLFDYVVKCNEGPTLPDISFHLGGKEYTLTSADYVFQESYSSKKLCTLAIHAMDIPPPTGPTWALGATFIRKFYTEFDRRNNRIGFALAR

Renin [2] = molecular target: T1, Renin; experiment: Inhibition of human recombinant renin using dabcyl-gamma-Abu-Ile-His-Pro-Phe-His-Leu-Val-Ile-His-Thr-EDANS as substrate preincubated for 30 mins after measured after 30 mins by fluorescence assay in presence of human plasma
Renin [3] = molecular target: T1, Renin; experiment: Inhibition of human recombinant renin using dabcyl-gamma-Abu-Ile-His-Pro-Phe-His-Leu-Val-Ile-His-Thr-EDANS as substrate preincubated for 30 mins after measured after 30 mins by fluorescence assay in presence of C57BL/6 mouse plasma
[4] = Apparent permeability from apical to basolateral side of human Caco2 cells at 20 uM after 2 hrs; conditions: Caco-2

Row | IC50 (Renin [1]) [nM] | further results | Compound
1 | 692 | – | Cc1ccc(C)c(Oc2c(C(=O)N3CCNCC3)c3ncccc3n2-c2ccccc2)c1
2 | 513 | – | O=C(c1c(Oc2ccccc2F)n(-c2ccccc2)c2cccnc12)N1CCNCC1
3 | 310 | – | O=C(c1c(Oc2cccc(F)c2F)n(-c2ccccc2)c2cccnc12)N1CCNCC1
4 | 202 | – | O=C(c1c(Oc2cc(F)ccc2F)n(-c2ccccc2)c2cccnc12)N1CCNCC1
5 | 74 | – | Cc1cccc(F)c1Oc1c(C(=O)N2CCNCC2)c2ncccc2n1-c1ccccc1
6 | 57 | – | Cc1c(F)cccc1Oc1c(C(=O)N2CCNCC2)c2ncccc2n1-c1ccccc1
7 | 24 | – | Cc1ccc(F)cc1Oc1c(C(=O)N2CCNCC2)c2ncccc2n1-c1ccccc1
8 | 55 | – | O=C(c1c(Oc2cc(F)ccc2Cl)n(-c2ccccc2)c2cccnc12)N1CCNCC1
9 | 322 | – | Cc1cc(F)c(F)cc1Oc1c(C(=O)N2CCNCC2)c2ncccc2n1-c1ccccc1
10 | 107 | – | Cc1c(F)cc(F)cc1Oc1c(C(=O)N2CCNCC2)c2ncccc2n1-c1ccccc1
11 | 14 | IC50 (Renin [2]): 30 nM; IC50 (Renin [3]): 15 nM; Papp A→B at 2 h, 20 µM [4]: 0.28 ×10⁻⁶ cm/s | Cc1cccc(C)c1Oc1c(C(=O)N2CCNCC2)c2ncccc2n1-c1ccccc1
12 | 1.3 | IC50 (Renin [3]): 36 nM; Papp A→B at 2 h, 20 µM [4]: 4.3 ×10⁻⁶ cm/s | Cc1ccc(F)c(C)c1Oc1c(C(=O)N2CCNCC2)c2ncccc2n1-c1ccccc1
13 | 61 | – | Cc1cccc(C)c1Sc1c(C(=O)N2CCNCC2)c2ncccc2n1-c1ccccc1
14 | 939 | – | O=C(c1c(Cc2ccccc2)n(-c2ccccc2)c2cccnc12)N1CCNCC1
15 | 1460 | – | O=C(c1c(Cc2cccc(F)c2F)n(-c2ccccc2)c2cccnc12)N1CCNCC1
16 | 246 | – | Cc1cc(F)cc(C)c1Cc1c(C(=O)N2CCNCC2)c2ncccc2n1-c1ccccc1
17 | 12 | – | Cc1c(F)cccc1Cc1c(C(=O)N2CCNCC2)c2ncccc2n1-c1ccccc1
18 | 4 | – | Cc1cccc(C)c1Oc1c(C(=O)N2CCNCC2)c2ncccc2n1C1CCCCC1
19 | 80 | – | Cc1cccc(C)c1Oc1c(C(=O)N2CCN[C@@H](C)C2)c2ncccc2n1C1CCCCC1
20 | 60 | – | Cc1cccc(C)c1Oc1c(C(=O)N2CCN[C@@H](C)C2)c2ncccc2n1-c1ccccc1
21 | 390 | – | Cc1cccc(C)c1Oc1c(C(=O)N2CCN[C@@H](CO)C2)c2ncccc2n1C1CCCCC1
22 | 143 | – | Cc1cccc(C)c1Oc1c(C(=O)N2CCN[C@@H](CO)C2)c2ncccc2n1-c1ccccc1
23 | 694 | – | COC[C@H]1CN(C(=O)c2c(Oc3c(C)cccc3C)n(C3CCCCC3)c3cccnc23)CCN1

Row | IC50 (Renin [1]) [nM] | further results | Compound
24 | 455 | – | CC[C@H]1CN(C(=O)c2c(Oc3c(C)cccc3C)n(-c3ccccc3)c3cccnc23)CCN1
25 | 1180 | – | CCC[C@H]1CN(C(=O)c2c(Oc3c(C)cccc3C)n(-c3ccccc3)c3cccnc23)CCN1
26 | 2710 | – | Cc1cccc(C)c1Oc1c(C(=O)N2CCN[C@@H](C(C)C)C2)c2ncccc2n1-c1ccccc1
27 | 152 | – | Cc1cccc(C)c1Oc1c(C(=O)N2CCNC[C@@H]2Cc2ccccc2)c2ncccc2n1-c1ccccc1
28 | 6630 | – | COc1ccc2c(n1)c(C(=O)N1CCNCC1)c(Oc1cc(F)ccc1C)n2-c1ccccc1
29 | > 5000 | – | Cc1ccc(F)cc1Oc1c(C(=O)N2CCNCC2)c2nc(O)ccc2n1-c1ccccc1
30 | 14 | – | Cc1cnc2c(C(=O)N3CCNCC3)c(Oc3cc(F)ccc3C)n(-c3ccccc3)c2c1
31 | 3 | – | Cc1cccc(C)c1Oc1c(C(=O)N2CCNCC2)c2ncc(O)cc2n1-c1ccccc1
32 | 80 | – | CCOc1cnc2c(C(=O)N3CCNCC3)c(Oc3c(C)cccc3C)n(-c3ccccc3)c2c1
33 | 9 | – | Cc1cnc2c(C(=O)N3CCNCC3)c(Cc3cccc(F)c3C)n(-c3ccccc3)c2c1
34 | 590 | – | COc1ccc2c(n1)c(C(=O)N1CCNCC1)c(Cc1cccc(F)c1C)n2-c1ccccc1
35 | 1600 | – | Cc1c(F)cccc1Cc1c(C(=O)N2CCNCC2)c2nc(O)ccc2n1-c1ccccc1
36 | 494 | – | Cc1ccccc1Oc1c(C(=O)N2CCNCC2)c2ccncc2n1-c1ccccc1
37 | 27 | – | Cc1ccc(F)cc1Oc1c(C(=O)N2CCNCC2)c2ccncc2n1-c1ccccc1
38 | 112 | – | Cc1cccc(C)c1Oc1c(C(=O)N2CCNCC2)c2ccncc2n1-c1ccccc1
39 | 2 | – | Cc1ccc(F)c(C)c1Oc1c(C(=O)N2CCNCC2)c2ccncc2n1-c1ccccc1
40 | 761 | – | O=C(c1c(Cc2ccccc2)n(-c2ccccc2)c2cnccc12)N1CCNCC1
41 | 14 | IC50 (Renin [2]): 25 nM; IC50 (Renin [3]): 26 nM; Papp A→B at 2 h, 20 µM [4]: 1.27 ×10⁻⁶ cm/s | Cc1c(F)cccc1Cc1c(C(=O)N2CCNCC2)c2ccncc2n1-c1ccccc1
42 | 423 | – | CCc1nccc2c(C(=O)N3CCNCC3)c(Oc3cc(F)ccc3C)n(-c3ccccc3)c12
43 | – | IC50 (Renin [2]): 226 nM; IC50 (Renin [3]): 192 nM; Papp A→B at 2 h, 20 µM [4]: 3.9 ×10⁻⁶ cm/s | Cc1ccc(F)cc1Oc1c(C(=O)N2CCNCC2)c2ccnc(Cc3ccccc3)c2n1-c1ccccc1
44 | 517 | – | Cc1cccc(C)c1Oc1c(C(=O)N2CCNCC2)c2ccnc(Cl)c2n1-c1ccccc1
45 | 5 | – | Cc1c(F)cccc1Cc1nccc2c(C(=O)N3CCNCC3)c(Cc3cccc(F)c3C)n(-c3ccccc3)c12
46 | 285 | – | CCCCC1CN(C(=O)c2c(Oc3c(C)cccc3C)n(-c3ccccc3)c3cccnc23)CCN1 (racemic)
